Assay results as given in patent US20260042731A1, “(2,4-DICHLOROPHENOXY)ACETIC ACID ANALOGS” (CORTEVA AGRISCIENCE LLC, priority 2022, published 2026).
Where two headings read alike, the source gives them in different places.

Legend:
[1] = tested on: Amaranthus rudis (AMATA), tall water hemp; test: Postemergence herbicide evaluation, growth of Amaranthus rudis (AMATA); type: in vivo; settings: Amaranthus tuberculatus, post-emergence, percent reduction in plant size vs untreated control, read-out: Ave. AMATA; for pest or weed control at 280 g/ha: 280 g ae/ha; for pest or weed control at 560 g/ha: 560 g ae/ha
[2] = tested on: Ambrosia artemisiifolia (AMBEL), common ragweed; test: Postemergence herbicide evaluation, growth of Ambrosia artemisiifolia (AMBEL); type: in vivo; settings: Ambrosia artemisiifolia, post-emergence, percent reduction in plant size vs untreated control, read-out: AVE. AMBEL; for pest or weed control at 280 g/ha: 280 g ae/ha; for pest or weed control at 560 g/ha: 560 g ae/ha
[3] = tested on: glyphosate resistant Conyza canadensis (L.) (ERICA), horseweed; test: Postemergence herbicide evaluation, growth of Conyza canadensis (ERICA); type: in vivo; settings: Erigeron canadensis, post-emergence, percent reduction in plant size vs untreated control, read-out: Ave. ERICA; for pest or weed control at 280 g/ha: 280 g ae/ha; for pest or weed control at 560 g/ha: 560 g ae/ha
[4] = tested on: Chenopodium album (CHEAL), common lambsquarters; test: Postemergence herbicide evaluation, growth of Chenopodium album (CHEAL); type: in vivo; settings: Chenopodium album, post-emergence, percent reduction in plant size vs untreated control, read-out: Ave. CHEAL; for pest or weed control at 280 g/ha: 280 g ae/ha; for pest or weed control at 560 g/ha: 560 g ae/ha
[5] = tested on: weeds ABUTH, AMATA, AMBEL, CHEAL, ERICA; test: Postemergence herbicide evaluation, overall average % weed control across ABUTH, AMATA, AMBEL, CHEAL and ERICA; type: in vivo; settings: post-emergence, average over five weeds, read-out: Overall Ave % Weed Control; for pest or weed control at 280 g/ha: 280 g ae/ha; for pest or weed control at 560 g/ha: 560 g ae/ha
[6] = tested on: Abutilon theophrasti (ABUTH), velvetleaf; test: Postemergence herbicide evaluation, growth of Abutilon theophrasti (ABUTH); type: in vivo; settings: Abutilon theophrasti, post-emergence, percent reduction in plant size vs untreated control, read-out: AVE. ABUTH; for pest or weed control at 280 g/ha: 280 g ae/ha; for pest or weed control at 560 g/ha: 560 g ae/ha
[7] = Volatility of compounds measured by thermogravimetric analysis (TGA); type: physicochemical

| Structure (SMILES) | pest or weed control at 280 g/ha ([1]; 168 h, 7 DAA) | pest or weed control at 560 g/ha ([1]; 168 h, 7 DAA) | pest or weed control at 280 g/ha ([1]; 336 h, 14 DAA) | pest or weed control at 560 g/ha ([1]; 336 h, 14 DAA) | pest or weed control at 280 g/ha ([1]; 504 h, 21 DAA) | pest or weed control at 560 g/ha ([2]; 168 h, 7 DAA) | pest or weed control at 560 g/ha ([2]; 504 h, 21 DAA) | pest or weed control at 560 g/ha ([3]; 168 h, 7 DAA) | pest or weed control at 560 g/ha ([3]; 336 h, 14 DAA) | pest or weed control at 560 g/ha ([3]; 504 h, 21 DAA) | pest or weed control at 560 g/ha ([4]; 168 h, 7 DAA) | pest or weed control at 560 g/ha ([4]; 336 h, 14 DAA) | pest or weed control at 560 g/ha ([4]; 504 h, 21 DAA) | pest or weed control at 560 g/ha ([5]; 168 h, 7 DAA) | pest or weed control at 560 g/ha ([5]; 336 h, 14 DAA) | pest or weed control at 560 g/ha ([5]; 504 h, 21 DAA) | pest or weed control at 560 g/ha ([6]; 168 h, 7 DAA) | pest or weed control at 560 g/ha ([6]; 336 h, 14 DAA) | pest or weed control at 560 g/ha ([6]; 504 h, 21 DAA) | TGA Data (rate of weight loss, volatility) [7] | other results |
| --- | --- | --- | --- | --- | --- | --- | --- | --- | --- | --- | --- | --- | --- | --- | --- | --- | --- | --- | --- | --- | --- |
| CONC(=O)COc1ccc(Cl)cc1Cl [Compound D19] | 77.5% | 90% | 90% | 93.5% | 72.5% | 93.5% | 100% | 80% | 100% | 99.5% | 85% | 95% | 98% | 87.2% | 94.3% | 94.5% | 87.5% | 98% | 100% | 0.61 µg/min | pest or weed control at 560 g/ha ([1]; 504 h, 21 DAA): 75%; pest or weed control at 280 g/ha ([2]; 168 h, 7 DAA): 82.5%; pest or weed control at 280 g/ha ([2]; 336 h, 14 DAA): 82.5%; pest or weed control at 560 g/ha ([2]; 336 h, 14 DAA): 85%; pest or weed control at 280 g/ha ([2]; 504 h, 21 DAA): 100%; pest or weed control at 280 g/ha ([3]; 168 h, 7 DAA): 82.5%; pest or weed control at 280 g/ha ([3]; 336 h, 14 DAA): 98%; pest or weed control at 280 g/ha ([3]; 504 h, 21 DAA): 98.5%; pest or weed control at 280 g/ha ([4]; 168 h, 7 DAA): 77.5%; pest or weed control at 280 g/ha ([4]; 336 h, 14 DAA): 94%; pest or weed control at 280 g/ha ([4]; 504 h, 21 DAA): 96.5%; pest or weed control at 280 g/ha ([5]; 168 h, 7 DAA): 79%; pest or weed control at 280 g/ha ([5]; 336 h, 14 DAA): 90.7%; pest or weed control at 280 g/ha ([5]; 504 h, 21 DAA): 93.2%; pest or weed control at 280 g/ha ([6]; 168 h, 7 DAA): 75%; pest or weed control at 280 g/ha ([6]; 336 h, 14 DAA): 89%; pest or weed control at 280 g/ha ([6]; 504 h, 21 DAA): 98.5% |
| COc1ccc(CONC(=O)COc2ccc(Cl)cc2Cl)cc1 [Compound D20] | 72.5% | 77.5% | 97.5% | 96% | 57.5% | 77.5% | 100% | 82.5% | 98.5% | 96% | 82.5% | 94.5% | 95% | 75% | 90.3% | 91.2% | 55% | 67.5% | 80% | 0.0112 µg/min | pest or weed control at 280 g/ha ([2]; 168 h, 7 DAA): 80%; pest or weed control at 280 g/ha ([2]; 336 h, 14 DAA): 70%; pest or weed control at 280 g/ha ([2]; 504 h, 21 DAA): 100%; pest or weed control at 280 g/ha ([3]; 168 h, 7 DAA): 72.5%; pest or weed control at 280 g/ha ([3]; 336 h, 14 DAA): 99.5%; pest or weed control at 280 g/ha ([3]; 504 h, 21 DAA): 96%; pest or weed control at 280 g/ha ([4]; 168 h, 7 DAA): 85%; pest or weed control at 280 g/ha ([4]; 336 h, 14 DAA): 87.5%; pest or weed control at 280 g/ha ([4]; 504 h, 21 DAA): 99%; pest or weed control at 280 g/ha ([5]; 168 h, 7 DAA): 77.5%; pest or weed control at 280 g/ha ([5]; 336 h, 14 DAA): 88.9%; pest or weed control at 280 g/ha ([5]; 504 h, 21 DAA): 90.2%; pest or weed control at 280 g/ha ([6]; 168 h, 7 DAA): 77.5%; pest or weed control at 280 g/ha ([6]; 336 h, 14 DAA): 90%; pest or weed control at 280 g/ha ([6]; 504 h, 21 DAA): 98.5% |
| O=C(COc1ccc(Cl)cc1Cl)NOCc1c(F)cccc1Cl [Compound D17] |  | 86.5% |  | 96% |  | 77.5% | 100% | 80% | 100% | 100% | 77.5% | 98% | 100% | 73.8% | 89.8% | 94.5% | 47.5% | 62.5% | 80% | 0.0287 µg/min | pest or weed control at 560 g/ha ([1]; 504 h, 21 DAA): 92.5%; pest or weed control at 560 g/ha ([2]; 336 h, 14 DAA): 92.5% |
